Values quoted from earlier work in patent publication US7923560B2, “Delivery of immune response modifier compounds” (3M Innovative Properties Company, priority 2003, dated 2011).

Tests used:
TLR 7 = target: T1, TLR 7 (Homo sapiens, UniProt Q9NYK1)
T1 construct: expressed in transfected cells
T1 sequence (Q9NYK1 27-1049): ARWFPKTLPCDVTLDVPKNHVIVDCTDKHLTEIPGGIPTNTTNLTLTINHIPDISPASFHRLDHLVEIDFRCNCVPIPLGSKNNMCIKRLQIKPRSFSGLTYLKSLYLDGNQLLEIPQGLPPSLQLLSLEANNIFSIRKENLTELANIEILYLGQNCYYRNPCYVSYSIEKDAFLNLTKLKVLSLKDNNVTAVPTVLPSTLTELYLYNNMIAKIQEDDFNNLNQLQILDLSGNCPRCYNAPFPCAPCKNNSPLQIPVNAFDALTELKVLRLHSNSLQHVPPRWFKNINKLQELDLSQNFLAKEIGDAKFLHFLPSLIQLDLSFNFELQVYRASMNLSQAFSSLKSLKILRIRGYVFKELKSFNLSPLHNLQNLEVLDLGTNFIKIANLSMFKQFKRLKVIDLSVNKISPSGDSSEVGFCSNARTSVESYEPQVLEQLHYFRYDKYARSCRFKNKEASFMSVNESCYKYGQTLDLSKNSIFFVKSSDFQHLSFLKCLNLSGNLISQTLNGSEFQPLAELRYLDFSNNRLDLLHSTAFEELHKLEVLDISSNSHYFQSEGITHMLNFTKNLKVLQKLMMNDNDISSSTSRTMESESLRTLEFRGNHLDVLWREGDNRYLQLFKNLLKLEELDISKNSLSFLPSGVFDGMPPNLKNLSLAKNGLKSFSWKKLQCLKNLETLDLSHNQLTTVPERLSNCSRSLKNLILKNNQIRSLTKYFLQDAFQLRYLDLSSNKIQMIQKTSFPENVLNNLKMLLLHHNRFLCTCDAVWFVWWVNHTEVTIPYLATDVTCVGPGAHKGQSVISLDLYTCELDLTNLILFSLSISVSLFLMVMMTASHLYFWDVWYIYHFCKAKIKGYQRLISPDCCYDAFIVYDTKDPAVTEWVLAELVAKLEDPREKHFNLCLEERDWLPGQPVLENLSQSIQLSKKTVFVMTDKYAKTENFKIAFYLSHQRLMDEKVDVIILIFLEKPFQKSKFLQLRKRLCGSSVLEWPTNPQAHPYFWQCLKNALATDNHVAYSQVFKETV

TLR 8 = target: T2, TLR 8 (Homo sapiens, UniProt Q9NR97)
T2 construct: expressed in transfected cells
T2 sequence (Q9NR97 27-1041): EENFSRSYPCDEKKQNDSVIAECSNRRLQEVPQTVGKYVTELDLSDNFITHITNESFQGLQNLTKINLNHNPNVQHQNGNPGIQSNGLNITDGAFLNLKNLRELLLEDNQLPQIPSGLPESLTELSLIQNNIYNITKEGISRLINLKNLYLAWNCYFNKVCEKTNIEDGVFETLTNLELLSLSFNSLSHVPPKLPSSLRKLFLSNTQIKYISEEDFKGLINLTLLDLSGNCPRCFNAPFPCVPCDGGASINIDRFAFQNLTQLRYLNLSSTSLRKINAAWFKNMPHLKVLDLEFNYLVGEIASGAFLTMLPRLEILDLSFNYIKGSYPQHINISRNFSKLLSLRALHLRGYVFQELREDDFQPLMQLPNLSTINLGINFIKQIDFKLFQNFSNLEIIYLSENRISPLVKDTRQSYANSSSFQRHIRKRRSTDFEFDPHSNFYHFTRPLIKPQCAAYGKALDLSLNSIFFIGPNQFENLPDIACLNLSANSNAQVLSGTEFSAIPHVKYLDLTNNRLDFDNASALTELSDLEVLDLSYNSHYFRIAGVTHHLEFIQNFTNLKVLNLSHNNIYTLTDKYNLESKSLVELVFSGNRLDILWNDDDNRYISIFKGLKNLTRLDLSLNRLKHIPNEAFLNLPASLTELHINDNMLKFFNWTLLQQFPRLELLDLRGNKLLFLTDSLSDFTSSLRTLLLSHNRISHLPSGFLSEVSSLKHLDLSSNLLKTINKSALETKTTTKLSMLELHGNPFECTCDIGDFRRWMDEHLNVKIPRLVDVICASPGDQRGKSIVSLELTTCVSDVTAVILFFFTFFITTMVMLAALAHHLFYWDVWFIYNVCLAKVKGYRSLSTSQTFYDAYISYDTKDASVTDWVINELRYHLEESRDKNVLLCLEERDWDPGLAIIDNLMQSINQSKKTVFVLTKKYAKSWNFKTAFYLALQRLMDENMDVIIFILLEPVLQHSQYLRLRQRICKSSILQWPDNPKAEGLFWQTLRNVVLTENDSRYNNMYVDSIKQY

[1] = delivered systemically, compared to imiquimod

TLR 7 agonist activity (TLR 7)	TLR 8 agonist activity (TLR 8)	CNS effect [1]	Structure (SMILES)
a TLR 7 and TLR 8 agonist	a TLR 7 and TLR 8 agonist	–	CCOCc1nc2c(N)nc3c(c2n1CC(C)(C)O)CCCC3 [4-amino-2-(ethoxymethyl)-α,α-dimethyl-6,7,8,9-tetrahydro-1H-imidazo[4,5-c]quinoline-1-ethanol]
predominantly a TLR 7 agonist	not a substantial TLR 8 agonist	much lower CNS effect	CC(C)(O)Cn1cnc2c(N)nc3ccccc3c21 [4-amino-α,α-dimethyl-1H-imidazo[4,5-c]quinoline-1-ethanol]
combination TLR 7 and TLR 8 agonist	combination TLR 7 and TLR 8 agonist	–	CCOCc1nc2c(N)nc3ccccc3c2n1CC(C)(C)O [Resiquimod, 4-amino-2-ethoxymethyl-α,α-dimethyl-1H-imidazo[4,5-c]quinoline-1-ethanol]
